# Assay results from paper PMC4954776 (Nature chemical biology, 2013).
# How the values were obtained:
# [1] = molecular target: BRAF kinase domain (residues 444 to 723, BRAF16mut) dimerization (Homo sapiens, UniProt P15056, A688R/F667E/I543A/I544S/I551K/K630S/K723G/L588N/L706S/L716E/P722S/Q562R/Q709R/S713E/Y673S); type: binding; conditions: 40 μM inhibitor, or 200 μM AMP-PNP / ADP with 200 μM MgCl2; Fig. 5e
# [2] = molecular target: T1, PERK kinase domain dimerization (Mus musculus, UniProt Q9Z2B5, DEL661-875); assay: Sedimentation velocity analytical ultracentrifugation of PERK kinase domain; type: binding, Murine; conditions: saturating concentrations; 40 μM inhibitor, 500 μM ADP with 2 mM MgCl2
# T1 sequence (Q9Z2B5 with tags, fused parts or gaps DEL661-875): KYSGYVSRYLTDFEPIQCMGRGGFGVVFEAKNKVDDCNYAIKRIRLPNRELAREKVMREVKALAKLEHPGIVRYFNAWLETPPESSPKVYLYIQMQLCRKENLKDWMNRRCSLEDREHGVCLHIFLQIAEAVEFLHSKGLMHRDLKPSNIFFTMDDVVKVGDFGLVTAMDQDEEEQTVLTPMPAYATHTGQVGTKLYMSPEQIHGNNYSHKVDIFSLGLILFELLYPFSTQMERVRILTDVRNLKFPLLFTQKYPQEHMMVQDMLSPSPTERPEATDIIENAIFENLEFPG
# [3] = molecular target: BRAFKD/BRAFKD (RlucII-BRAFKD-CAAX / GFP10-BRAFKD-CAAX) (Homo sapiens, UniProt P15056); assay: BRET titration curves, BRAFKD homodimerization biosensor; type: cell-based; conditions: Fig. 1c
# [4] = test system: RAF family members (ARAF, BRAF, CRAF, KSR1, KSR2) kinase domain dimers; assay: Panel of RAF dimerization BRET biosensors; type: cell-based; conditions: for RAFKD dimer induction profile across biosensor panel: dose-response, BRAFKD and CRAFKD acceptor probes, Fig. 2c; for induction of RAF dimerization in kinase inhibitor library screen: collection of 184 compounds, Fig. 5a
# [5] = molecular target: CRAF homodimers (Homo sapiens, UniProt P04049); assay: BRET biosensor CRAF homodimers; type: cell-based; conditions: Fig. 2c
# CRAF homodimers, sequence (P04049 340-648): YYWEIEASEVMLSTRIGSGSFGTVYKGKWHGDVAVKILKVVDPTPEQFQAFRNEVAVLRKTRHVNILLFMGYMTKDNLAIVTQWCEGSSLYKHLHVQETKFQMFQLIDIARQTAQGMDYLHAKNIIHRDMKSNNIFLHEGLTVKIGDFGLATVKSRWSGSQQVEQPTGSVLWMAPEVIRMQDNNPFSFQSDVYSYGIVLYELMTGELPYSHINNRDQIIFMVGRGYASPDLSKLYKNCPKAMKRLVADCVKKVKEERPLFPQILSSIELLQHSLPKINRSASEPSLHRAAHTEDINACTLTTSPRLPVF
# CRAF homodimers, sequence (P04049 340-648): as above
# [6] = molecular target: BRAFKD F595R (Homo sapiens, UniProt P15056, F595R); assay: BRET saturation curves, BRAF R spine mutant; type: cell-based; conditions: Fig. 6c
# [7] = molecular target: BRAFKD WT / BRAFKD WT (Homo sapiens, UniProt P15056); type: cell-based; conditions: 33 nM; Fig. 1e
# [8] = molecular target: BRAFKD WT / BRAFKD R509H (Homo sapiens, UniProt P15056, R509H); type: cell-based; conditions: 33 nM; Fig. 1e
# [9] = molecular target: BRAF/KSR1 dimers (Homo sapiens, UniProt P15056+Q8IVT5); assay: BRET biosensor BRAF/KSR1 dimers; type: cell-based; conditions: Fig. 2c
# [10] = molecular target: BRAFKD T529M / BRAFKD T529M (Homo sapiens, UniProt P15056, T529M); assay: BRET dose-response, BRAFKD T529M gatekeeper mutant homodimerization; type: cell-based; conditions: Fig. 4g
# [11] = molecular target: T2, CRAFKD / BRAFKD (Homo sapiens, UniProt P04049+P15056); assay: BRET dose-response, CAAX-boxed CRAFKD/BRAFKD biosensor; type: cell-based; conditions: 10 μM; Fig. 4b
# [12] = molecular target: T2, CRAFKD / BRAFKD; assay: High-throughput chemical screen with CRAFKD/BRAFKD biosensor; type: cell-based; conditions: 10 μM screening concentration; Fig. 4a
# [13] = molecular target: KSR1KD / MEK1 (Homo sapiens, UniProt Q8IVT5); assay: BRET selectivity assay, KSR1KD/MEK1 pair; type: cell-based; conditions: 10 μM; Fig. 4b
# KSR1KD / MEK1, sequence (Q8IVT5 602-921): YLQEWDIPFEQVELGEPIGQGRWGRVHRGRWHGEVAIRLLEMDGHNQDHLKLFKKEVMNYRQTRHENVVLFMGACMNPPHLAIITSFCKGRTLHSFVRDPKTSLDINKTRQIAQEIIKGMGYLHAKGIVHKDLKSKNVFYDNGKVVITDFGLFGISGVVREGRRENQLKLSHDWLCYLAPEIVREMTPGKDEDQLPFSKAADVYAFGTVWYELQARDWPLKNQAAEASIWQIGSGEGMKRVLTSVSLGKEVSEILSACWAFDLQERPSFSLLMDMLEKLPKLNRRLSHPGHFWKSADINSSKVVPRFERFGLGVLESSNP
# KSR1KD / MEK1, sequence (Q02750 whole entry partner): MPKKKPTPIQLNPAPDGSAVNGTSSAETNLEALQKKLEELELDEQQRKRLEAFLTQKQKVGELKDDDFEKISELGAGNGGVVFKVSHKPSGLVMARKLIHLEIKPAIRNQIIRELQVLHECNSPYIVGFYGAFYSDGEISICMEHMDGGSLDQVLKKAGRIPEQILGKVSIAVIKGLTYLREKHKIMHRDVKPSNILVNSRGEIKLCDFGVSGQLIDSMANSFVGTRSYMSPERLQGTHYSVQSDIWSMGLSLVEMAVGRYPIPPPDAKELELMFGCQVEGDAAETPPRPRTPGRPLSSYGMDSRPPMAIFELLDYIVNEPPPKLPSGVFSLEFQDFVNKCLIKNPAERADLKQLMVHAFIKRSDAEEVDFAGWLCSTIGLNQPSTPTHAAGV
# [14] = molecular target: BRAF/CRAF dimers (Homo sapiens, UniProt P04049+P15056); assay: Co-immunoprecipitation of full-length GFP-CRAF and Flag-BRAF; type: cell-based; conditions: SB202190 and SB203580 10 μM; Fig. 4d
# [15] = molecular target: BRAF/BRAF dimers (Homo sapiens, UniProt P15056); assay: Co-immunoprecipitation of full-length BRAF/BRAF dimers; type: cell-based; conditions: 10 μM; Fig. 4e
# [16] = test system: ERK phosphorylation; assay: ERK phosphorylation in RAF-expressing HEK293T cells; type: cell-based; conditions: 2 μM, Fig. 4f
# [17] = Solubility in aqueous solution; type: physicochemical
smiles,measurement,setting,value
Nc1ncnc2c1ncn2[C@@H]1O[C@H](COP(=O)(O)OP(=O)(O)O)[C@@H](O)[C@H]1O [ADP],effect on BRAF kinase domain dimerization relative to apo state,[1],inhibited dimer formation
same,effect on PERK kinase domain dimerization,[2],weakly promoted dimerization
Nc1ncnc2c1ncn2[C@@H]1O[C@H](COP(=O)(O)OP(=O)(O)NP(=O)(O)O)[C@@H](O)[C@H]1O [AMP-PNP],effect on BRAF kinase domain dimerization relative to apo state,[1],inhibited dimer formation
Cc1ccc(NC(=O)c2cccc(C(C)(C)C#N)c2)cc1Nc1ccc2ncn(C)c(=O)c2c1 [AZ-628],effect on BRET50 in titration experiments,[3],significantly reduced
same,RAFKD dimer induction profile across biosensor panel,[4],strong and broad inducers
same,induction of CRAF homodimers,[5],strongly promoted
same,"dimerization of BRAF R spine mutant (F595R), BRET saturation curves",[6],promote dimerization
Cc1nc(Nc2ncc(C(=O)Nc3c(C)cccc3Cl)s2)cc(N2CCN(CCO)CC2)n1 [Dasatinib],induction of RAF dimerization in kinase inhibitor library screen,[4],significant inducers of RAF dimerization
OCCn1cc(-c2ccc3c(c2)CC/C3=N\O)c(-c2ccncc2)n1 [GDC-0879],effect on BRET50 in titration experiments,[3],significantly reduced
same,time at which BRET induction plateaued,[7],≤ 60 min
same,time at which activity (BRET induction) could first be detected,[7],5 min
same,response of R509H mutant biosensor to drug,[8],insensitive
same,RAFKD dimer induction profile across biosensor panel,[4],strong and broad inducers
same,induction of BRAF/KSR1 dimers,[9],strongly induced
"Cn1cc(-c2ccc3c(c2)CCN3C(=O)Cc2cccc(C(F)(F)F)c2)c2c(N)ncnc21 [GSK2606414, 7-Methyl-5-(1-{[3-(trifluoromethyl)phenyl]acetyl}-2,3-dihydro-1H-indol-5-yl)-7H-p yrrolo[2,3-d]pyrimidin-4-amine]",effect on PERK kinase domain dimerization,[2],potently promotes
Cc1cn(-c2cc(NC(=O)c3ccc(C)c(Nc4nccc(-c5cccnc5)n4)c3)cc(C(F)(F)F)c2)cn1 [Nilotinib],induction of RAF dimerization in kinase inhibitor library screen,[4],significant inducers of RAF dimerization
CCCS(=O)(=O)Nc1ccc(F)c(C(=O)c2c[nH]c3ncc(Cl)cc23)c1F [PLX4720],RAFKD dimer induction profile across biosensor panel,[4],relatively weak RAFKD dimer inducers
Oc1ccc(-c2nc(-c3ccncc3)c(-c3ccc(F)cc3)[nH]2)cc1 [SB202190],effect of T529M gatekeeper mutant on inhibitor-induced BRAFKD homodimerization,[10],reduces
same,effect on CRAFKD/BRAFKD BRET signal,[11],induces
same,rank among inducers of CRAFKD/BRAFKD dimerization in HTS,[12],most potent inducer
same,effect on BRET produced by the KSR1KD/MEK1 pair,[13],does not alter
same,BRAF/CRAF dimerization by co-immunoprecipitation,[14],increased BRAF/CRAF dimerization
same,BRAF homodimerization by co-immunoprecipitation,[15],induced BRAF homodimerization
same,ERK activity in RAF transfected cells,[16],stimulated ERK activity
same,effect on BRAF kinase domain dimerization relative to apo state,[1],promoted dimerization
C[S+]([O-])c1ccc(-c2nc(-c3ccncc3)c(-c3ccc(F)cc3)[nH]2)cc1 (centres unmarked) [SB203580],ERK activity in RAF transfected cells,[16],stimulated ERK activity
CNC(=O)c1cc(Oc2ccc(NC(=O)Nc3ccc(Cl)c(C(F)(F)F)c3)cc2)ccn1 [Sorafenib],RAFKD dimer induction profile across biosensor panel,[4],relatively weak RAFKD dimer inducers
same,solubility in aqueous solution,[17],limited solubility
"Cn1cc(-c2ccc3c(c2)CCN3C(=O)Cc2cc(F)cc(C(F)(F)F)c2)c2c(N)ncnc21 [close structural analog of GSK2606414, 5-(1-{[3-Fluoro-5-(trifluoromethyl)phenyl]acetyl}-2,3-dihydro-1H-indol-5-yl)-7-methyl-7H-pyrrolo[2,3-d]pyrimidin-4-amine]",effect on PERK kinase domain dimerization,[2],strongly promoted dimerization
